From US6472348B1, “Pyridone derivatives and herbicides” (Kumiai Chemical Industry Co., Ltd., priority 1996, dated 2002)

Key:
Type in all cases: in vivo
Set-up in all cases: scale not given here
pale smartweed (Po) [1] = assay: Test Example 6: crop plant selectivity by upland field soil treatment (soybean), herbicidal effects; conditions: 21st day after application
Summary of the method: (§1)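 Soybean and weeds sown in sand-filled pots and covered with soil, then treated by soil application. Plants grown in a greenhouse, with herbicidal effect and crop phytotoxicity scored on day 21 after application against a fixed rating scale.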

[2] = system: common lambsquarters (Ch); assay: as above; conditions: 21st day after application
Summary of the method: as §1

China jute (Ab) [3] = assay: as above; conditions: 21st day after application
Summary of the method: as §1

green foxtail (Se) = assay: as above; conditions: 21st day after application
Summary of the method: as §1

slender amaranth (Am) [4] = assay: as above; conditions: 21st day after application
Summary of the method: as §1

soybean (Gl) = assay: Test Example 6: crop plant selectivity by upland field soil treatment (soybean), phytotoxicity; conditions: 21st day after application
Summary of the method: as §1

pale smartweed (Po) [5] = assay: Test Example 9: crop plant selectivity by upland field foliage treatment (wheat), herbicidal effects; conditions: dose 1.6 g ai/10a, 14th day after treatment
Summary of the method: (§2)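 Wheat and broadleaf weeds were sown together in sand-filled pots and grown for 2 weeks in a greenhouse before foliar treatment. Herbicidal effect on weeds and phytotoxicity to wheat were scored visually against set grading standards on day 14 after treatment, with plants kept in the greenhouse.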

[6] = system: common lambsquarters (Ch); assay: as above; conditions: dose 1.6 g ai/10a, 14th day after treatment
Summary of the method: as §2

China jute (Ab) [7] = assay: as above; conditions: dose 1.6 g ai/10a, 14th day after treatment
Summary of the method: as §2

slender amaranth (Am) [8] = assay: as above; conditions: dose 1.6 g ai/10a, 14th day after treatment
Summary of the method: as §2

wheat (Tr) = assay: Test Example 5: crop plant selectivity by upland field soil treatment (wheat), phytotoxicity; conditions: 21st day after application
Summary of the method: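 Upland soil-treatment selectivity test: crop and weed seeds are sown together in sand-filled pots, soil-covered, then treated and grown under glass until rating at 21 days.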

China jute (Ab) [9] = assay: Test Example 4: crop plant selectivity by upland field soil treatment (cotton), herbicidal effects; conditions: evaluated 21st day after application
Summary of the method: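 Sand-filled pots, seeds sown then soil-covered; soil application; greenhouse culture; visual scoring of weed control and cotton injury at day 21 post-application.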

Row | SMILES | Herbicidal effects Po (pale smartweed (Po) [1]; dose 1.6 g ai/10a) | Herbicidal effects Ch ([2]; dose 1.6 g ai/10a) | Herbicidal effects Ab (China jute (Ab) [3]; dose 1.6 g ai/10a) | Herbicidal effects Se (green foxtail (Se); dose 1.6 g ai/10a) | Herbicidal effects Am (slender amaranth (Am) [4]; dose 1.6 g ai/10a) | Phytotoxicity Gl (soybean (Gl); dose 1.6 g ai/10a) | Herbicidal effects Po (pale smartweed (Po) [5]) | Herbicidal effects Ch [6] | Herbicidal effects Ab (China jute (Ab) [7]) | Herbicidal effects Am (slender amaranth (Am) [8]) | Phytotoxicity Tr (wheat (Tr); dose 1.6 g ai/10a) | Herbicidal effects Ab (China jute (Ab) [9]; dose 1.6 g ai/10 a) | Herbicidal effects Ab (China jute (Ab) [9]; dose 6.3 g ai/10 a) | Herbicidal effects Po (pale smartweed (Po) [1]; dose 6.3 g ai/10a) | Herbicidal effects Ch ([2]; dose 6.3 g ai/10a) | Herbicidal effects Ab (China jute (Ab) [3]; dose 6.3 g ai/10a) | Herbicidal effects Se (green foxtail (Se); dose 6.3 g ai/10a) | Herbicidal effects Am (slender amaranth (Am) [4]; dose 6.3 g ai/10a) | Phytotoxicity Gl (soybean (Gl); dose 6.3 g ai/10a) | Phytotoxicity Tr (wheat (Tr); dose 6.3 g ai/10a)
1 | CCc1cc2c(-c3ccc(C(F)(F)F)n(C)c3=O)c(F)cc(Cl)c2o1 [Compound 4-2] | 5 | 5 | 5 | 5 | 5 | 1 | 5 | 5 | 5 | 5 | 1 | 5 | 5 |  |  |  |  |  |  | 
2 | CCCc1cc2c(-c3ccc(C(F)(F)F)n(C)c3=O)c(F)cc(Cl)c2o1 [Compound 4-3] |  |  |  |  |  |  | 5 | 5 | 5 | 5 |  |  | 5 | 5 | 5 | 5 | 5 | 5 | 1 | 2
3 | CCc1cc2c(Cl)cc(F)c(-c3ccc(C(F)(F)F)n(C)c3=O)c2o1 [Compound 5-2] |  |  |  |  |  |  | 5 | 5 | 5 | 5 |  |  | 5 | 5 | 5 | 5 | 5 | 5 | 1 | 1
4 | CCCC(=O)c1cc(-c2ccc(C(F)(F)F)n(C)c2=O)c(F)cc1Cl [Compound No. 1-194, 3-[4-chloro-2-fluoro-5-(1-oxobutyl)phenyl]-1-methyl-6-trifluoromethyl-2(1H)-pyridone] |  |  |  |  |  |  | 5 | 5 | 5 | 5 |  |  | 5 | 5 | 5 | 5 | 5 | 5 | 1 | 1
5 | Cn1c(C(F)(F)F)ccc(-c2c(F)cc(Cl)c3oc(CO)cc23)c1=O [Compound No. 4-5, 3-(7-chloro-5-fluoro-2-hydroxymethylbenzofuran-4-yl)-1-methyl-6-trifluoromethyl-2-(1H)-pyridone] |  |  |  |  |  |  | 5 | 5 | 5 | 5 |  |  | 5 | 5 | 5 | 5 | 5 | 5 | 2 | 1
6 | Cn1c(C(F)(F)F)ccc(-c2c(F)cc(Cl)c3occc23)c1=O [Compound No. 4-28, 3-(7-chloro-5-fluorobenzofuran-4-yl)-1-methyl-6-trifluoromethyl-2-(1H)-pyridone] | 5 | 5 | 5 | 5 | 5 | 2 | 5 | 5 | 5 | 5 |  | 5 | 5 |  |  |  |  |  |  | 2
